From patent publication US8815828B2, “Therapeutic combinations for use in neoplasia” (University of Florida Research Foundation, Inc., priority 2008, dated 2014)
Read-outs that look alike come from different tables or passages of the source.

How the values were obtained:
T47D breast cancer cells = assay: Sulforhodamine B (SRB) colorimetric cytotoxicity assay, T47D; type: cell-based, human; conditions: for IC50: read-out: IC50 (cytotoxicity), agent alone
Description: Data are the mean±SE of three different estimations.
The developed color was measured at 564 nm.

MCF7 breast cancer cells = assay: Sulforhodamine B (SRB) colorimetric cytotoxicity assay, MCF7; conditions: for IC50: read-out: IC50 (cytotoxicity), agent alone
Description: After 48 hours, cells were harvested and processed for cytotoxicity determination by clonogenic assay. Data presented are the mean±SE of three different estimations.
The IC50 (the drug concentration needed to prevent cell proliferation by 50%) of TMZ was determined using a sulforhodamine B (SRB) colorimetric assay. This assay relies on the ability of SRB to bind the protein components of cells that have been fixed to tissue culture plates by trichloroacetic acid (TCA) (Vachai V, Kirtikara K. Sulforhodamine B colorimetric assay for cytotoxicity screening. Nat. Proto. 3: 1122-1116, 2006). MCF7 and T47D cells were seeded in 96-well plates at a density of 500 cells per well. After 24 hours, while the cells were in the log phase of cell growth, the cells were treated with different concentrations of TMZ (1-1000 μM) for 48 hours. […] The cells were subsequently fixed with 10% (w/v) of tricholoroacetic acid, washed with double distilled water, and stained with 0.4% SRB. Cells were then repeatedly washed with 1% (v/v) of acetic acid to remove the unbound dye. The protein bound dye was dissolved in 10 mM Tris-base solution (pH 10.5). The developed color was measured at 564 nm. The percentage of cell survival as a function of drug concentration was then plotted to determine the IC50 value.

MCF7 cells = assay: Clonogenic assay (Example 5, FIG. 8), MCF7; type: cell-based; conditions: Homo sapiens, 48 hours, then fresh medium, read-out: IC50 of TMZ alone or in the named combination
Description: (§1) After 48 hours, drugs were withdrawn and allowed to grow in fresh medium for determination of cytotoxicity by clonogenic assay. The data presented are the mean±SE of three different estimations.
(§2) To test this hypothesis, the IC50 of TMZ in four human breast cancer cell lines was determined using a clonogenic assay (Vachai et al., Nat. Proto. 3: 1122-1116, 2006). The cell lines used were MCF7, T47D (both ER/PR/HER2-positive), MDA-MB-231 and MDA-MB-468 (both triple-negative).

T47D cells = assay: Clonogenic assay (Example 5, FIG. 8), T47D; type: cell-based; conditions: Homo sapiens, 48 hours, then fresh medium, read-out: IC50 of TMZ alone or in the named combination
Description: as §1, §2

MDA-MB-468 cells = assay: Clonogenic assay (Example 5, FIG. 8), MDA-MB-468; type: cell-based; conditions: Homo sapiens, 48 hours, then fresh medium, read-out: IC50 of TMZ alone or in the named combination
Description: as §1, §2

MDA-MB-231 cells = assay: Clonogenic assay (Example 5, FIG. 8), MDA-MB-231; type: cell-based; conditions: Homo sapiens, 48 hours, then fresh medium, read-out: IC50 of TMZ alone or in the named combination
Description: as §1, §2

[1] = tested on: MDA-MB-468 breast cancer cells; assay: Sulforhodamine B (SRB) colorimetric cytotoxicity assay, MDA-MB-468; conditions: for IC50: read-out: IC50 (cytotoxicity), agent alone
[2] = tested on: MDA-MB-231 breast cancer cells; assay: Sulforhodamine B (SRB) colorimetric cytotoxicity assay, MDA-MB-231; conditions: for IC50: read-out: IC50 (cytotoxicity), agent alone
[3] = tested on: T47D and MCF7 human breast cancer cell lines; assay: Cytotoxicity by clonogenic assay (FIG. 3 legend), T47D and MCF7 stated jointly; type: cell-based; conditions: one value for both, read-out: IC50, agent alone
[4] = tested on: MDA-MB468 and MDA-MB-231 human breast cancer cell lines; assay: Cytotoxicity by clonogenic assay (FIG. 4 legend), MDA-MB468 and MDA-MB-231 stated jointly; type: cell-based; conditions: MDA-MB468 and MDA-MB-231 cell lines, one value for both; read-out: IC50, agent alone
Description: After 48 hours, drugs were withdrawn and allowed to grow in fresh medium for determination of cytotoxicity by clonogenic assay. Data presented are the mean±SE of three different estimations. […] Data presented are the mean+/−SE of three different estimations.

[5] = tested on: MCF7, T47D, MDA-MB-231 and MDA-MB-468 human breast cancer cell lines; assay: Clonogenic assay (Example 5, FIG. 8), four breast cancer cell lines stated jointly; type: cell-based; conditions: one value for all cell lines of FIG. 8, read-out: IC50, agent alone
Description: as §1, §2

Pol-β = Pol-β (Homo sapiens, UniProt P06746); assay: In vitro base excision repair (BER) assay with 32P-U-DNA substrate; type: biochemical; conditions: dose-dependent manner (FIG. 2B)
From the text: The reaction conditions are described below. […] Data are representative of three different experiments.
An assay was developed that permits in vitro analysis of BER as described in FIG. 2A.

In the case of `Cn1nnc2c(C(N)=O)ncn2c1=O` [TMZ, Temozolomide], the IC50 (T47D breast cancer cells; Homo sapiens, T47D, 48 h) is reported as 303 µM, the “reduction of the IC50 of TMZ” value (T47D breast cancer cells; T47D cells, TMZ with BG (2.5 μM)) is reported as “about 4 fold” and the “reduction of the IC50 of TMZ” value (T47D breast cancer cells; T47D cells, TMZ with NSC-666715 (15 μM)) is reported as “about 1.1 fold”. The “reduction of the IC50 of TMZ” value (T47D breast cancer cells; T47D cells, TMZ with both BG (2.5 μM) and NSC-666715 (15 μM)) was “about 8 fold”, the IC50 (MCF7 breast cancer cells; Homo sapiens, MCF7, 48 h) was 303 µM and the “reduction of the IC50 of TMZ” value (MCF7 breast cancer cells; MCF7 cells, TMZ with BG (2.5 μM)) was “about 4 fold”. For the same compound, the “reduction of the IC50 of TMZ” value (MCF7 breast cancer cells; MCF7 cells, TMZ with NSC-666715 (15 μM)) was “about 1.5 fold”, the “reduction of the IC50 of TMZ” value (MCF7 breast cancer cells; MCF7 cells, TMZ with both BG (2.5 μM) and NSC-666715 (15 μM)) was “about 7 fold” and the “reduction in the IC50 of TMZ” value (MCF7 breast cancer cells; NSC-666715 and O6-benzylguanine in combination with temozolomide, cell line not stated at this place (figure matches MCF7)) was 7 fold. It also gave an IC50 (MCF7 cells) of 331 µM, an IC50 (T47D cells) of 334 µM and an IC50 (MDA-MB-468 cells) of 298 µM. The IC50 (MDA-MB-231 cells) was 334 µM, the IC50 ([1]; Homo sapiens, MDA-MB-468, 48 h) was 316 µM and the “reduction of the IC50 of TMZ” value ([1]; MDA-MB-468 cells, TMZ with BG (2.5 μM)) was “about 6 fold”. For the same compound, the “reduction of the IC50 of TMZ” value ([1]; MDA-MB-468 cells, TMZ with NSC-666715 (15 μM)) was “about 0.1 fold”, the “reduction of the IC50 of TMZ” value ([1]; MDA-MB-468 cells, TMZ with both BG (2.5 μM) and NSC-666715 (15 μM)) was “about 15 fold” and the IC50 ([2]; Homo sapiens, MDA-MB-231, 48 h) was 344 µM. The “reduction of the IC50 of TMZ” value ([2]; MDA-MB-231 cells, TMZ with BG (2.5 μM)) was “about 2.8 fold”, the “reduction of the IC50 of TMZ” value ([2]; MDA-MB-231 cells, TMZ with NSC-666715 (15 μM)) was “about 1.5 fold” and the “reduction of the IC50 of TMZ” value ([2]; MDA-MB-231 cells, TMZ with both BG (2.5 μM) and NSC-666715 (15 μM)) was “about 6.6 fold”.
Compound `Cc1cc(S(=O)(=O)Nc2n[nH]c(Nc3ccc(Cl)cc3)n2)c(S)cc1Cl` [NSC-666715, Benzosulfonamide, 4-chloro-N-[5-[(4-chlorophenyl)amino]1H-1,2,4-triazol-3-yl]-2-mercapto-5-methyl-(9Cl)] has an IC50 [3] of roughly 100 µM, an IC50 [4] of roughly 100 µM and an IC50 [5] of 100 µM.
With `Nc1nc(OCc2ccccc2)c2nc[nH]c2n1` [BG, O^6-benzylguanine] the IC50 (T47D breast cancer cells; T47D cells, 48 hours) was roughly 149 µM, the IC50 (MCF7 breast cancer cells; MCF7 cells, 48 hours) was roughly 91 µM and the IC50 [3] was roughly 75 µM. It also gave an IC50 [4] of roughly 75 µM, an IC50 ([1]; MDA-MB-468 cells, 48 hours) of roughly 100 µM and an IC50 ([2]; MDA-MB-231 cells, 48 hours) of roughly 77 µM.
For `COc1cc(/C=C/C(=O)CC(=O)/C=C/c2ccc(O)c(OC)c2)ccc1O` [curcumin, (1E,6E)-1,7-bis(4-hydroxy-3-methoxy-phenyl)hepta-1,6-diene-3,5-dione], the IC50 ([5]; Homo sapiens) was 5 µM.
`Nc1cc(I)n([C@H]2C[C@H](O)[C@@H](COP(=O)(O)O)O2)c(=O)n1` [NSC-124854, 5′-cytidylic acid, 2′-deoxy-6-iodo-(9CI)] was tested, and the strand-displacement synthesis (Pol-β; 32P-U-DNA substrate, in the presence of Fen-1) was “blocked”, the “Pol-β-mediated 1-nt incorporation” value (Pol-β; 32P-U-DNA substrate) was “blocked” and the “complete repair of 32P-U-DNA by the SN-BER pathway” value (Pol-β; with DNA ligase I) was “blocked”. The “complete repair of 32P-U-DNA by the LP-BER pathway” value (Pol-β; with Fen-1 and DNA ligase I) was “blocked”.
